# Source: ChEMBL document CHEMBL1201862, “PubChem BioAssay data set” (2004)
# Activity calls are given as the source filed them. Rule as the data show it: actives have a measured IC50 and inactives only a lower limit.
# Target: Envelope glycoprotein gp160 (Human immunodeficiency virus 1, UniProt Q6QLK5)
# Assay: inhibitors of HIV fusion peptide binding, primary screen, biochemical, uHTS, fluorescence dequenching (AID 1986)
# Chain of Envelope glycoprotein gp160 (Q6QLK5 whole entry, the tested form may be a part): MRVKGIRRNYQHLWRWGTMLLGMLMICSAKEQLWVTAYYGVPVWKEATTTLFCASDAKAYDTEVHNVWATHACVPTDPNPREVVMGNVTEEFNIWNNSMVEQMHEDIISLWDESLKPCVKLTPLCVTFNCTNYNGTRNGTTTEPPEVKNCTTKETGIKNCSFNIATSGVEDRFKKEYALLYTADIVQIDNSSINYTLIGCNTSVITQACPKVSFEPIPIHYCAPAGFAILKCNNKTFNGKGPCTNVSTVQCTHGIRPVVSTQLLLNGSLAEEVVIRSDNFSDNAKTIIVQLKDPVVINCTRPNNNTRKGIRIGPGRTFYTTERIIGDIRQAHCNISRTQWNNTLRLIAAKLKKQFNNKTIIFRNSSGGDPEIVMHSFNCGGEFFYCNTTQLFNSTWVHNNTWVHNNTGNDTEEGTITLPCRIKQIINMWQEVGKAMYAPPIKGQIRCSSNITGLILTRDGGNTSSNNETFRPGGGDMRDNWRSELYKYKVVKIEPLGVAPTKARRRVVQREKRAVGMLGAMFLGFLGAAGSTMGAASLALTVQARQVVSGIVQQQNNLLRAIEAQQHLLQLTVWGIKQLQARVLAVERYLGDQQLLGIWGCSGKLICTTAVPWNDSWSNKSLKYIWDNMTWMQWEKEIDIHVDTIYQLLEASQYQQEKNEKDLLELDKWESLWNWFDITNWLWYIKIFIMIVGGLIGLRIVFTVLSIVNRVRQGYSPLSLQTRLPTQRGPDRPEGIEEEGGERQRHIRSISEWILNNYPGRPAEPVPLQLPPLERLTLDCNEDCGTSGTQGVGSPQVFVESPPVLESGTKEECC
row,Compound,IC50
1,N#Cc1c(-c2ccccc2)nc(SCc2ccc(Cl)cc2)[nH]c1=O,22.5 µM (active)
2,COc1ccc(/C=C2/SC(=O)N(CCCCCC(=O)Nc3ccccc3C(=O)O)C2=S)cc1,18 µM (active)
3,COc1cc(/C=N/Nc2ccc(Cl)c(C(=O)O)c2)ccc1OC(=O)c1ccccc1F,26.2 µM (active)
